Data: a compilation of properties of binary mixtures (doi:10.1016/j.jct.2019.105906)

Test: xn = mol fraction of the nth substance listed
Conditions: 100 kPa

CCCC[n+]1ccn(C)c1.F[P-](F)(F)(F)(F)F + CCOC(C)=O
speed of sound [m/s]
Conditions	x1 = 0.1012	x1 = 0.1992	x1 = 0.312	x1 = 0.3985	x1 = 0.5056	x1 = 0.5996	x1 = 0.7054	x1 = 0.7963	x1 = 0.9185	x1 = 1
298.15 K	1182.1	1223.3	1269.2	1302	1337.9	–	1391.7	1410.1	1430.5	1443.8
303.15 K	1161.8	1205	1252.8	–	–	–	1378.8	1397.4	–	1431.7
308.15 K	1141.8	1186.7	–	–	–	1339.5	1366	–	1405.6	1419.8
313.15 K	1121.4	–	1220.1	1256	1297.5	1325.9	1353.2	1371.9	–	–
318.15 K	1101.1	–	1203.7	1240.6	–	1312.6	1340.4	–	–	–
323.15 K	1081	1132.1	1187.3	1225.2	–	1299.1	1327.5	1346.6	1368.4	1385.6

CCOC(C)=O + CCCC[n+]1ccn(C)c1.F[P-](F)(F)(F)(F)F
x2 = 0
Conditions	speed of sound [m/s]
303.15 K	1120.8
308.15 K	1098.7
313.15 K	1076.4
318.15 K	1054.1
323.15 K	1032
